Results as given in article PMC6882823, “Partitioning of amino acids and proteins into decanol using phase transfer agents towards understanding life in non-polar liquids” (Scientific Reports, 2019).

Tests used:
[1] = Water/decanol phase partitioning with or without phase transfer agents; format: physicochemical
Protocol: Biomolecules were dissolved in ultrapure water (Millipore EMD, USA), containing decylsulfate and/or DDAB when noted. […] Final concentrations of phase transfer agents (PTAs) and amino acids were generally 10 mM unless noted otherwise for specific experiments. Proteins were generally diluted until their 280 nm absorbance was less than or equal to 1 AU.
(§1) Equal volumes of water phase (containing the biomolecule and PTA, if added) and decanol were mixed, vortexed for 30 s, then centrifuged for 3 minutes with a mini centrifuge. These samples were prepared in triplicate. Both decanol and aqueous phase were analyzed for biomolecules. Phenylalanine and proteins were analyzed using UV-vis (Hewlett-Packard 8453).
(§2) HPLC was performed with Cosmosil HILiC column (2.5 µm particle size, 3 × 100 mm; Nacalai USA) at 30 °C with a 1.0 mL/min flow rate, and isocratic elution of 25% 20 mM ammonium acetate, pH 7.5 and 75% acetonitrile (Optima, LC-MS purity, Fisher Scientific). Injection volume was 10 µL. For mass spectra collection, HESI heater temp was 50 °C, with a 4.5 kV spray, and 250 °C capillary temperature in positive ion mode.

[2] = design: method as in PMID 7108955; conditions: amino acid residue; positive scores = higher hydrophobicity; cited from earlier work
[3] = Potassium ion binding of valinomycin in the decanol phase; conditions: decanol phase after partitioning against 100 mM KCl
Protocol: Ultra-pure Millipore grade (18.2 MΩ) water, 100 mM KCl or 100 mM AuCl were tested as aqueous phases. In all samples all of the valinomycin was found in the decanol phase (see SI for additional details).
as §1, §2

Molecule: Tpol: Taq DNA polymerase, UniProt P19821
- Tpol entering the decanol phase ([1]; water/decanol, no PTA or 5 mM of both DDAB and DS, UV-vis): About 10%

Molecule: NCC(=O)O [glycine, Glycine]
- Hydrophathy (hydropathy score of residue type) [2]: −0.4

Molecule: valinomycin [reference compound]
- ability to bind potassium ions [3]: appeared to retain its biological ability to bind to potassium ions
- valinomycin found in the decanol phase ([1]; water/decanol, without PTAs, aqueous phase ultra-pure water, 100 mM KCl or 100 mM AuCl, LC-MS and UV 210 nm, three independent partitionings): all

Molecule: N[C@@H](CCC(=O)O)C(=O)O [glutamic acid]
- Hydrophathy (hydropathy score of residue type) [2]: −3.5

Molecule: N[C@@H](Cc1ccccc1)C(=O)O [phenylalanine, Phenylalanine]
- Hydrophathy (hydropathy score of residue type) [2]: 2.8
- phenylalanine partitioning into decanol, 1:1 PTA to phenylalanine, pH 7 ([1]; water/decanol, 10 mM phenylalanine, 1:1 ratio of PTA (DS and DDAB 1:1), pH 7 zwitterionic, UV-vis, n = 3): 15%
- phenylalanine entering the decanol phase, 1:10 PTA to phenylalanine ([1]; water/decanol, 10 mM phenylalanine, 1:10 ratio of PTA, all pHs (1.5 DS; 7.0 DS and DDAB; 10.0 DDAB), UV-vis, n = 3): about 10%

B1: Bacteriorhodopsin: a membrane protein, soluble only in amphiphilic systems (protein, UniProt P02945 14-262, looked up)
Bacteriorhodopsin: QAQITGRPEWIWLALGTALMGLGTLYFLVKGMGVSDPDAKKFYAITTLVPAIAFTMYLSMLLGYGLTMVPFGGEQNPIYWARYADWLFTTPLLLLDLALLVDADQGTILALVGADGIMIGTGLVGALTKVYSYRFVWWAISTAAMLYILYVLFFGFTSKAESMRPEVASTFKVLRNVTVVLWSAYPVVWLIGSEGAGIVPLNIETLLFMVLDVSAKVGFGLILLRSRAIFGEAEAPEPSAGDGAAATSD
- behaviour of bacteriorhodopsin in partitioning experiments ([1]; water/decanol with DS and DDAB added, visual): aggregated at the interface between the water and oil phase
- solubility in water and decanol phases ([1]; without PTAs, appearing as crystals): insoluble in both the water and decanol phases
